This note sets out measurements from patent US20260256909A1, “COMBINATION OF A BTN3A ACTIVATING ANTIBODY, A BCL2 INHIBITOR AND HYPOMETHYLATING AGENT FOR USE IN TREATING CANCER” (Imcheck Therapeutics, priority 2022, published 2026).

What all share (format): cell-based, human
Assay [1] concerns Vγ9Vδ2 T cells. Briefly: Survival of Vγ9Vδ2 T cells in HD-PBMC (Caspase3/7 and dead cell marker, flow cytometry). The settings on record: for reduced survival of Vγ9Vδ2 T cells compared to no Venetoclax condition: simultaneous treatment with ICT01 1 μg/mL. How it is done: The effect of ICT01 on the survival of Vγ9Vδ2 T cells upon treatment with Bcl-2 family member inhibitors was assessed in Peripheral Blood Mononuclear Cells from Healthy Donors (HD-PBMC) using the apoptotic marker Caspase3/7 and a dead cell marker in flow cytometry analysis.
(§1) Peripheral Blood Mononuclear Cells (PBMC) were isolated by Ficoll density gradient centrifugation of peripheral blood (EDTA-buffy coats) from healthy donors (HD, n=4-6), cultured in PBMC medium (RPMI 1640 Medium supplemented with 10% Fetal Bovine Serum (FBS), 1% Penicillin/Streptomycin and 1 mM Sodium Pyruvate) and treated with ICT01 or its isotype control (hIgG1S) used at 1 μg/mL in the presence or absence of increasing concentrations of Venetoclax (0-0.1 μM), 5-Azacytidine (0-0.4 μM) or the combination, or ABT-737 (0-1.875 μM), Navitoclax (0-1.875 μM) or MIK665 (0-1.875 μM). Cells were harvested on day 2, centrifuged at 1800 rpm for 5 minutes and then incubated 10 minutes at room temperature (RT) with 25 μl of FcR blocking reagent (Miltenyi Biotec) before adding 25 μL of the following antibody mix prepared in PBS+2% FBS+2 mM EDTA (FACS buffer): anti-CD4-BUV395, CD56-BV421, Vd2-PE, CD3-PE-CF594 and CD8-A700 antibodies for the identification of immune subsets, anti-CD25-BV650 and CD69-APC antibodies were added to monitor activation status of Vγ9Vδ2 T cells, and a viability marker (LIVE/DEAD™ Fixable Dead Cell Stain) was added to distinguish live from dead cells. Cells were incubated 20 minutes at room temperature (RT) and washed 2 times with FACS buffer. A Caspase3/7 Green detection reagent (ThermoFisher) was added to determine apoptosis and cells were incubated for 30 minutes at RT before flow cytometry analysis.
In a similar experiment, freshly isolated PBMC were stimulated with ICT01 or its isotype control hIgG1S for 1 day prior to a 2 day-treatment with Venetoclax (FIG. 3a). The number of live Vγ9Vδ2 T cells was assessed by flow cytometry at the end of the incubation time.

Assay [2] relates to Vγ9Vδ2 T cells. Briefly: Phenotypic activation of Vγ9Vδ2 T cells in HD-PBMC (CD69/CD25 expression, flow cytometry). Particulars: for activation of Vγ9Vδ2 T cells by ICT01 (CD25 expression): HD-PBMC treated one day with Venetoclax (0-0.1 μM), 5-Azacytidine (0-0.4 μM) prior to ICT01 for two days; for effect on the ICT01-induced upregulation of CD25 by Vγ9Vδ2 T cells: day 4, together with ICT01 1 μg/mL, Venetoclax 0-0.1 μM, 5-Azacytidine 0-0.4 μM. How it is done: as §1
ICT01-induced phenotypic activation of Vγ9Vδ2 T cells is indicated by the upregulation of CD25. Therefore, human PBMC from healthy donors (HD, n=6) were cultured with ICT01 or its isotype control (hIgG1S) used at 1 μg/mL in the presence or absence of increasing concentrations of Venetoclax (0-0.1 μM), 5-Azacytidine (0-0.4 μM) or the combination in PBMC medium (RPMI 1640 Medium supplemented with 10% FBS, 1% Penicillin/Streptomycin and 1 mM Sodium Pyruvate). Cells were harvested on day 4, centrifuged at 1800 rpm for 5 minutes and then incubated 10 minutes at room temperature (RT) with 25 μl of FcR blocking reagent (Miltenyi Biotec) before adding 25 μL of the following antibody mix prepared in PBS+2% FBS+2 mM EDTA (FACS buffer): anti-CD4-BV650, CD56-FITC, Vd2-PE, CD3-PE-CF594 and CD8-A700 antibodies for the identification of immune subsets, an anti-CD25-BV650 antibody was added to monitor activation status, and a viability marker (LIVE/DEAD™ Fixable Dead Cell Stain) was added to distinguish live from dead cells. Cells were incubated 20 minutes at 4° C. and washed 2 times in FACS buffer before flow cytometry analysis.
In a similar experiment, freshly isolated healthy donor-derived PBMC were treated with increasing concentrations of Venetoclax (0-0.1 μM), 5-Azacytidine (0-0.4 μM) or the combination for one day prior to stimulation with ICT01 or its isotype control hIgG1S for two days. Again, activation of Vγ9Vδ2T cells by ICT01 was unaffected by Venetoclax and 5-Azacytidine treatment, as indicated by the similar induction of CD25 expression in all conditions tested (Figure b).

The subject of assay [3] is Vγ9Vδ2 T cells. Briefly: Expression of activating and inhibitory receptors by Vγ9Vδ2 T cells in HD-PBMC. The settings on record: for effect on ICT01-induced expression of activating and inhibitory receptors on Vγ9Vδ2 T cells: day 5, Venetoclax 0-0.1 μM, 5-Azacytidine 0-0.4 μM. As for the experimental part:
Vγ9Vδ2 T cell functions are tightly regulated by activating (NKG2D and DNAM-1) and inhibitory receptors (PD-1, NKG2A, BTLA, TIM3). To assess the impact of Venetoclax and 5-Azacytidine treatment on the expression of these receptors by Vγ9Vδ2 T cells, frozen human PBMC from healthy donors (HD, n=6) were thawed and treated with ICT01 or its isotype control (hIgG1S) used at 1 μg/mL in the presence or absence of increasing concentrations of Venetoclax (0-0.1 μM), 5-Azacytidine (0-0.4 μM) or the combination in PBMC medium (RPMI 1640 Medium supplemented with 10% FBS, 1% Penicillin/Streptomycin, 1 mM Sodium Pyruvate and 50 IU/mL IL2). Cells were harvested on day 5, centrifuged at 1800 rpm for 5 minutes and then incubated 10 minutes at RT with 25 μl of FcR blocking reagent (Miltenyi Biotec) before adding 25 μL of the following antibody mix prepared in PBS+2% FBS+2 mM EDTA (FACS buffer): anti-CD4-BUV395, Vδ2-PE, CD3-PE-CF594 and CD8-A700 antibodies for the identification of immune subsets, anti-BTLA-BV421, PD1-BV650, DNAM-1-BV785, TIM3-BB515, NKG2A-PE-Vio770 and NKG2D-APC antibodies for the detection of inhibitory and activating receptors, and a viability marker (LIVE/DEAD™ Fixable Dead Cell Stain) was added to distinguish live from dead cells. Cells were incubated 20 minutes at 4° C. and washed 2 times in FACS buffer before flow cytometry analysis.

[4] abbreviates: 0.01 μM Venetoclax, HD-PBMC, 48 h.
Setting [5] is: 0.1 μM Venetoclax, HD-PBMC, 48 h.

In the case of “ICT01: humanized BTN3A activating antibody of mAb 7.2, heavy chain SEQ ID NO: 4, light chain SEQ ID NO: 6, silent IgG1 L247F/L248E/P350S”, the “Venetoclax induced cell death of Vγ9Vδ2 T cells” value in assay [1] (PBMC stimulated with ICT01 for 1 day prior to a 2 day-treatment with Venetoclax, vs hIgG1S) was “significantly reduced”. Further, the “activation of Vγ9Vδ2 T cells: expression of CD69 and CD25” value in assay [2] (HD-PBMC, 2 days, ICT01 1 μg/mL, compared to hIgG1S) is “increased expression of CD69 and CD25”. In addition, in assay [3] (day 5, ICT01 1 μg/mL, 50 IU/mL IL2), the “expression of activating (NKG2D, DNAM-1) and inhibitory receptors (PD-1, NKG2A, BTLA, TIM3) on Vγ9Vδ2 T cells” value is listed as “increased expression”.

Consider `CC1(C)CCC(CN2CCN(c3ccc(C(=O)NS(=O)(=O)c4ccc(NCC5CCOCC5)c([N+](=O)[O-])c4)c(Oc4cnc5[nH]ccc5c4)c3)CC2)=C(c2ccc(Cl)cc2)C1` [Venetoclax, 4-[4-[[2-(4-chlorophenyl)-4,4-dimethylcyclohexen-1-yl]methyl]piperazin-1-yl]-N-[3-nitro-4-(oxan-4-ylmethylamino)phenyl]sulfonyl-2-(1H-pyrrolo[2,3-b]pyridin-5-yloxy)benzamide], for which the “reduction of live cells (Vγ9Vδ2 T cells) compared to no Venetoclax condition” value in assay [1] (setting [4]) was ~ 29%; in assay [1] (setting [5]), ~ 49%. In addition, the “reduced survival of Vγ9Vδ2 T cells compared to no Venetoclax condition” value is on record as ~ 11% in assay [1] (setting [4]) and ~ 30% in assay [1] (setting [5]). In assay [2], the “activation of Vγ9Vδ2 T cells by ICT01 (CD25 expression)” value is recorded as “unaffected”. For the same compound, the “effect on the ICT01-induced upregulation of CD25 by Vγ9Vδ2 T cells” value in assay [2] (HD-PBMC) is listed as “no effect”. For the same compound, the “effect on ICT01-induced expression of activating and inhibitory receptors on Vγ9Vδ2 T cells” value in assay [3] is given as “unaffected”.

Regarding `Nc1ncn([C@@H]2O[C@H](CO)[C@@H](O)[C@H]2O)c(=O)n1` [5-Azacytidine, 4-amino-1-[(2R,3R,4S,5R)3,4-dihydroxy-5-(hydroxymethyl)oxolan-2-yl]-1,3,5-triazin-2-one], the “effect on the survival of Vγ9Vδ2 T cells” value in assay [1] (HD-PBMC, 48 h, 5-Azacytidine 0-0.4 μM) is reported as “no effect”. Besides, the “activation of Vγ9Vδ2 T cells by ICT01 (CD25 expression)” value in assay [2] is listed as “unaffected”. Also, the “effect on the ICT01-induced upregulation of CD25 by Vγ9Vδ2 T cells” value in assay [2] (HD-PBMC) was “no effect”. Further, the “effect on ICT01-induced expression of activating and inhibitory receptors on Vγ9Vδ2 T cells” value in assay [3] is given as “unaffected”.
